Experimental data published in ChEMBL document CHEMBL4706623, “GPR52 Antagonist Reduces Huntingtin Levels and Ameliorates Huntington's Disease-Related Phenotypes” (J Med Chem, 2021).

Biological target: G-protein coupled receptor 52 (Homo sapiens, UniProt Q9Y2T5)
Assay: Antagonist activity at GPR52 (unknown origin) expressed in HEK293 cells assessed as inhibition of WO459-induced cAMP accumulation preincubated for 15 mins followed by WO459 addition and measured after 30 mins by LANCE Ultra cAMP kit based microplate reader analysis
Assay type: functional, cell-based
Conditions: read-out: IC50

G-protein coupled receptor 52, sequence (Q9Y2T5 whole entry): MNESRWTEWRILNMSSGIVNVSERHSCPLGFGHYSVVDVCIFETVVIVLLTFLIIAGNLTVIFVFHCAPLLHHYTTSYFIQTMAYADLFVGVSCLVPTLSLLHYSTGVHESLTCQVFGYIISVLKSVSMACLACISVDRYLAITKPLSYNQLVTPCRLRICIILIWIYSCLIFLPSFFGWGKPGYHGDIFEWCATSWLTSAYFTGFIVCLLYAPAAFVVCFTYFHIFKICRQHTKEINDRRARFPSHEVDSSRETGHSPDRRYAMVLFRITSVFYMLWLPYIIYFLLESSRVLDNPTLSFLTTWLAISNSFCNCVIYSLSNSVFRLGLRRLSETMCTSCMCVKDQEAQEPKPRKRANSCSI

IC50: 3.02 µM
Structure (SMILES): Cc1ccc(C(=O)/C=C/CCc2ccccc2)cc1
